# From publication PMC3483018 (Journal of Medicinal Chemistry, 2012)
# Like-named read-outs stand apart in the source and are kept apart here.
# Legend:
# [1] = pKa measurement; type: physicochemical
# [2] = target: hERG (Homo sapiens, UniProt Q12809); assay: in vitro
# [3] = Caco-2 assay; type: in vitro ADME
# [4] = system: MV4–11 human FLT3-ITD positive AML tumor xenografts; conditions: for days on which individual mice were culled (tumor volume increased by over 500%): control culled day 18
# [5] = system: histone H-3 phosphorylation at S10; assay: PK/PD study, tumor biomarker; type: in vivo, mouse; conditions: 50 and 100 mg/kg po b.i.d. 4 days, 2 h after the final dose
# [6] = system: Stat5 phosphorylation at Y694; assay: PK/PD study, tumor biomarker; type: in vivo, mouse; conditions: 50 and 100 mg/kg po b.i.d. 4 days, 2 h after the final dose
# [7] = In vivo rat PK; conditions: female, Sprague-Dawley, plasma, iv, 5 mg/kg
# [8] = system: SW620 human colon cancer cell; conditions: read-out: SW620 GI50; cited from earlier work
# [9] = type: in vitro ADME; conditions: mouse liver microsomes, 10 μM
# [10] = type: in vitro ADME; conditions: human liver microsomes, 10 μM
# Chain of hERG (Q12809 whole entry): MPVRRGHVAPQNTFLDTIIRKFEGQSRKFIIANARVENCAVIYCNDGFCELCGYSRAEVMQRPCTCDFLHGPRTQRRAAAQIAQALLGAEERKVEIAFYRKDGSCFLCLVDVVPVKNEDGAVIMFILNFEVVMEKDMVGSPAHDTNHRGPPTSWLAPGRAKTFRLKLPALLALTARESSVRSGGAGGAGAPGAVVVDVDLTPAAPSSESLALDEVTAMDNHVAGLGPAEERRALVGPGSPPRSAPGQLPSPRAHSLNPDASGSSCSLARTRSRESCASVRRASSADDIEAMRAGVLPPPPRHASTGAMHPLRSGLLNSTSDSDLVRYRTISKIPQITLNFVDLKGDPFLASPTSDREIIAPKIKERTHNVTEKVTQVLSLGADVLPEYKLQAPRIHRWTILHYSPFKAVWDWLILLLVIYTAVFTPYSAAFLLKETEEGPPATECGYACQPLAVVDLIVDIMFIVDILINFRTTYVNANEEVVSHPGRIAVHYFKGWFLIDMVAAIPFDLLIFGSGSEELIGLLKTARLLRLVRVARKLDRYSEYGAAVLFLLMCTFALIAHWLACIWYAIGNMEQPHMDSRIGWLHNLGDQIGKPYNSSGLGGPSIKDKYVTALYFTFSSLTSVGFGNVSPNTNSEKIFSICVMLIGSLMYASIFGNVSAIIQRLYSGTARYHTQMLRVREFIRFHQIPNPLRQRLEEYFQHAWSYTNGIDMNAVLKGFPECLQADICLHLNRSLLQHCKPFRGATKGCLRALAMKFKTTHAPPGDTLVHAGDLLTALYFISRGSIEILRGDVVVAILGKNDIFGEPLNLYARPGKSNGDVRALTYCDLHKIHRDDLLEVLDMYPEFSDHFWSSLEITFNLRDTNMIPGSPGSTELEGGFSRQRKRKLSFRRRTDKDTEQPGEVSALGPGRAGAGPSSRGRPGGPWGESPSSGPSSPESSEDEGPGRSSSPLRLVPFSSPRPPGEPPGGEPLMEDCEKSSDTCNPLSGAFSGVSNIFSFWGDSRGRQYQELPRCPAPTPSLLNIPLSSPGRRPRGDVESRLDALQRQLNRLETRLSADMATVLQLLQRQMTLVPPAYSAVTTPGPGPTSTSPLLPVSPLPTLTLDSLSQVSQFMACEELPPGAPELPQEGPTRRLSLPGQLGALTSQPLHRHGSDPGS
structure (smiles),measurement,setting,value
"COc1ccc(-c2nc3c(N4CCN(Cc5cc(C)on5)CC4)c(Br)cnc3[nH]2)cc1 [6-bromo-2-(4-methoxyphenyl)-7-[4-(5-methyl-isoxazol-3-ylmethyl)-piperazin-1-yl]-3H-imidazo[4,5-b]pyridine]",pKa,[1]; acidic pKa of the imidazopyridine N3 proton,9.51
same,pKa,[1]; pKa of the piperazine nitrogen bearing the 5-methylisoxazol-3-yl substituent,5.39
"Cc1cc(CN2CCN(c3c(Br)cnc4nc(-c5cncn5C)[nH]c34)CC2)no1 [Compound 21a, 3-((4-(6-Bromo-2-(1-methyl-1H-imidazol-5-yl)-3H-imidazo[4,5-b]pyridin-7-yl)piperazin-1-yl)methyl)-5-methylisoxazole]",inhibition at 10 µM,[2],94%
"Cc1nn(C)cc1-c1nc2c(N3CCN(Cc4ccc(Cl)cc4)CC3)c(Cl)cnc2[nH]1 [Compound 27e, 6-Chloro-7-(4-(4-chlorobenzyl)piperazin-1-yl)-2-(1,3-dimethyl-1H-pyrazol-4-yl)-3H-imidazo[4,5-b]pyridine]",Caco-2 efflux,[3],no efflux
same,days on which individual mice were culled (tumor volume increased by over 500%),[4]; 50 mg/kg,days 28 and 31
same,tumors when therapy discontinued,"[4]; 100 mg/kg po b.i.d., after 11 days",undetectable
same,days on which individual mice were culled (tumor volume increased by over 500%),[4]; 100 mg/kg,days 46 and 56
same,toxicity as defined by body weight loss and general condition,[4]; 50 and 100 mg/kg po,no observed toxicity
same,inhibition of histone H-3 phosphorylation in tumor,[5],clear inhibition
same,inhibition of Stat5 phosphorylation in tumor,[6],clear inhibition
same,Vd,[7],0.369 L
Cc1cc(CN2CCN(c3c(Br)cnc4nc(-c5ccc(N6CCN(C)CC6)cc5)[nH]c34)CC2)no1 [Compound 6],GI50,[8],300 nM
"Cc1cc(CN2CCN(c3c(Cl)cnc4nc(-c5cnn(C)c5)[nH]c34)CC2)no1 [Compound 21i, 3-((4-(6-Chloro-2-(1-methyl-1H-pyrazol-4-yl)-3H-imidazo[4,5-b]pyridin-7-yl)piperazin-1-yl)methyl)-5-methylisoxazole]",MLM: Percentage of parent compound metabolized after a 30 min incubation,[9],20%
same,inhibition at 10 µM,[2],67%
same,HLM: Percentage of parent compound metabolized after a 30 min incubation,[10],10%
